# Where two headings read alike, the source gives them in different places.
# Target: T1, EZH2 protein in LS174T cells (Homo sapiens, UniProt Q15910)
# T1 construct: endogenous in cells; host or cells: LS174T
# Assay: Proteolytic effect in colorectal cancer cells (Western blotting)
# Type: cell-based
# Experimental: After 72 hours of the treatment, the cells were collected and lysed using RIPA buffer (50 mM Tris, pH 7.5, 150 mM NaCl, 1% Triton X-100, 0.1% SDS, […], 0.5% deoxycholate, and protease inhibitor cocktail), followed by sonication (30 sec on/30 sec off, 5 cycles) to prepare a cell lysate.
# [1] = EZH2 protein, LS174T cells, 1 μM, 72 hours
# [2] = EZH2 protein, LS174T cells, 1 uM, 72 hours, Western blotting
# T1 sequence (Q15910 whole entry): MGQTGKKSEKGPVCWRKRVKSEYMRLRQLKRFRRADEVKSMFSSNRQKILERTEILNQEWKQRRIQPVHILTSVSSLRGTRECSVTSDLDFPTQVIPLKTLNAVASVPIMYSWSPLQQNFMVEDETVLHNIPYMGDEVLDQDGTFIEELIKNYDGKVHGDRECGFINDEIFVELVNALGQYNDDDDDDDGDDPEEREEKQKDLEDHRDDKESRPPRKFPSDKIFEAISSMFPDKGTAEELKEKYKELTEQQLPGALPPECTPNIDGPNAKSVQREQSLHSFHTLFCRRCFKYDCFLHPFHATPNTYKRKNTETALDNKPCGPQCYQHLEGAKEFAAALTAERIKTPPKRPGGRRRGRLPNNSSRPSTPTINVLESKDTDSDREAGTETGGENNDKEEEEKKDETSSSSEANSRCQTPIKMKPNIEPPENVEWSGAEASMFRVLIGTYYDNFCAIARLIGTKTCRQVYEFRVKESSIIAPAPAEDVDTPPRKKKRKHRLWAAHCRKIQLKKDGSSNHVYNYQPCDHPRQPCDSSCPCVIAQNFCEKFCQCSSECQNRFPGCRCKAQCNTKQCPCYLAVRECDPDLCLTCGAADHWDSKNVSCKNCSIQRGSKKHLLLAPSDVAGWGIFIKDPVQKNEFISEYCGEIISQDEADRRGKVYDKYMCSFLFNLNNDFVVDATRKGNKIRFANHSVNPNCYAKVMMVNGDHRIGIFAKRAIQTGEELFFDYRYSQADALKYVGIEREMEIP
# T1 sequence (O75530 whole entry partner): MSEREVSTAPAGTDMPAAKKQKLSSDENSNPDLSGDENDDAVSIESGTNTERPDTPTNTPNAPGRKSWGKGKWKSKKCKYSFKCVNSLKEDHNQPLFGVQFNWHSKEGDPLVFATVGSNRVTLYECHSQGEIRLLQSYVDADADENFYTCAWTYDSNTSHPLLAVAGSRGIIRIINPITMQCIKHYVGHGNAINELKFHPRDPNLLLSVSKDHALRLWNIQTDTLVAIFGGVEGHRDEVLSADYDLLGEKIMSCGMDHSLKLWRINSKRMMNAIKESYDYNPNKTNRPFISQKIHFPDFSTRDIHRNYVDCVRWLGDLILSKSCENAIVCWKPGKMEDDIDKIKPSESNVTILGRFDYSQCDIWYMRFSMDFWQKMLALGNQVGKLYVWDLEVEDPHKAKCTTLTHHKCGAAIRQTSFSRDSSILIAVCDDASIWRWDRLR
# T1 sequence (Q15022 whole entry partner): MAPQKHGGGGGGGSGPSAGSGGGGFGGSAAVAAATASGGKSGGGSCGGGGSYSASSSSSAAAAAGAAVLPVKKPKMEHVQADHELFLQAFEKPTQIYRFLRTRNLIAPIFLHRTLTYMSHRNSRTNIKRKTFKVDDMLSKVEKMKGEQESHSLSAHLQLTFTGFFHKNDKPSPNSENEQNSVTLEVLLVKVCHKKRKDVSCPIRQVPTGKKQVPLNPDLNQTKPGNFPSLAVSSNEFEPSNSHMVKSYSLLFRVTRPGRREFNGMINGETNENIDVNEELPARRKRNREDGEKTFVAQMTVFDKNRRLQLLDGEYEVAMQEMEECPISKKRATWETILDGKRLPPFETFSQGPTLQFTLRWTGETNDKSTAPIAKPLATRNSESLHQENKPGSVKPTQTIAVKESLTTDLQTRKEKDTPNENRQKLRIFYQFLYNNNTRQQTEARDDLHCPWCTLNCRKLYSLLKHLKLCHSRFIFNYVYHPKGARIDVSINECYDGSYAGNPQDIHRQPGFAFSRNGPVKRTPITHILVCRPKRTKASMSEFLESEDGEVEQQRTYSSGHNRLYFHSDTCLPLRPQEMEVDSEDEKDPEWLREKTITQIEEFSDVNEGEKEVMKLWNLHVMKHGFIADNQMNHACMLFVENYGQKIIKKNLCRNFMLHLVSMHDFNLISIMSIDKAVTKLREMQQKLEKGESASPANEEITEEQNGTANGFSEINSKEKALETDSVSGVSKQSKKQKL
Grade (percent value of the protein degradation when treated with 1 μM) [1],"%, degradation at 1 uM [2] [%]","EZH2 proteolytic effect by Western blotting (figure, in words) (FIGS. 1 to 5)",effect of degrading EZH2 protein when treated to colorectal cancer cells (in words) (LS174T cells),SMILES,"%, degradation at 1 uM [%]",Grade (percent value of the protein degradation when treated with 1 μM)
–,–,–,–,"CCN(c1cc(-c2ccc(CN3CCN(CC(=O)NCCCCCCNC(=O)[C@H](CC(C)C)NC(=O)[C@@H](O)[C@H](N)Cc4ccccc4)CC3)cc2)cc(C(=O)NCc2c(C)cc(C)[nH]c2=O)c1C)C1CCOCC1 [Example 50, 4′-((4-(2-((6-((S)-2-((2S,3R)-3-amino-2-hydroxy-4-phenylbutanamido)-4-methylpentanamido)hexyl)amino)-2-oxoethyl)piperazine-1-yl)methyl)-N-((4,6-dimethyl-2-oxo-1,2-dihydropyridine-3-yl)methyl)-5-(ethyl(tetrahydro-2H-pyran-4-yl)amino)-4-methyl-[1,1′-biphenyl]-3-carboxamide]",0,D (key: A: >75%; B: 50-75%; C: 25-50%; D: <25%)
D (<25%),0,–,–,"CCN(c1cc(-c2ccc(CN3CCN(CC(=O)NCCOc4cccc5c4C(=O)N(C4CCC(=O)NC4=O)C5=O)CC3)cc2)cc(C(=O)NCc2c(C)cc(C)[nH]c2=O)c1C)C1CCOCC1 (stereo not shown) [Example 5, N-((4,6-dimethyl-2-oxo-1,2-dihydropyridine-3-yl)methyl)-4′-((4-(2-((2-((2-(2,6-dioxopiperidine-3-yl)-1,3-dioxoisoindoline-4-yl)oxy)ethyl)amino)-2-oxoethyl)piperazine-1-yl)methyl)-5-(ethyl(tetrahydro-2H-pyran-4-yl)amino)-4-methyl-[1,1′-biphenyl]-3-carboxamide]",–,–
A (>75%),80.85,confirming the EZH2 proteolytic effect,excellent effects,"CCN(c1cc(-c2ccc(CN3CCN(CC(=O)N4CCC5(CCN(CCCCNc6cccc7c6C(=O)N(C6CCC(=O)NC6=O)C7=O)CC5)CC4)CC3)cc2)cc(C(=O)NCc2c(C)cc(C)[nH]c2=O)c1C)C1CCOCC1 (stereo not shown) [Example 33, N-((4,6-dimethyl-2-oxo-1,2-dihydropyridine-3-yl)methyl)-4′-((4-(2-(9-(4-((2-(2,6-dioxopiperidine-3-yl)-1,3-dioxoisoindoline-4-yl)amino)butyl)-3,9-diazaspiro[5.5]undecane-3-yl)-2-oxoethyl)piperazine-1-yl)methyl)-5-(ethyl(tetrahydro-2H-pyran-4-yl)amino)-4-methyl-[1,1′-biphenyl]-3-carboxamide]",–,–
D (<25%),9.97,–,–,"CCN(c1cc(-c2ccc(CN3CCN(CC(=O)NCCCCCCN[C@H](C(=O)N4C[C@H](O)C[C@H]4C(=O)NCc4ccc(-c5scnc5C)cc4)C(C)(C)C)CC3)cc2)cc(C(=O)NCc2c(C)cc(C)[nH]c2=O)c1C)C1CCOCC1 [Example 38, (2S,4R)-1-((S)-2-((6-(2-(4-((3′-(((4,6-dimethyl-2-oxo-1,2-dihydropyridine-3-yl)methyl)carbamoyl)-5′-(ethyl(tetrahydro-2H-pyran-4-yl)amino)-4′-methyl-[1,1′-biphenyl]-4-yl)methyl)piperazine-1-yl)acetamido)hexyl)amino)-3,3-dimethylbutanoyl)-4-hydroxy-N-(4-(4-methylthiazole-5-yl)benzyl)pyrrolidine-2-carboxamide]",–,–
D (<25%),1.52,–,–,"CCN(c1cc(-c2ccc(CN3CCN(Cc4cn(CCCNc5cccc6c5C(=O)N(C5CCC(=O)NC5=O)C6=O)nn4)CC3)cc2)cc(C(=O)NCc2c(C)cc(C)[nH]c2=O)c1C)C1CCOCC1 (stereo not shown) [Example 23, N-((4,6-dimethyl-2-oxo-1,2-dihydropyridine-3-yl)methyl)-4′-((4-((1-(3-((2-(2,6-dioxopiperidine-3-yl)-1,3-dioxoisoindoline-4-yl)amino)propyl)-1H-1,2,3-triazole-4-yl)methyl)piperazine-1-yl)methyl)-5-(ethyl(tetrahydro-2H-pyran-4-yl)amino)-4-methyl-[1,1′-biphenyl]-3-carboxamide]",–,–
D (<25%),18.10,–,–,"CCN(c1cc(-c2ccc(CN3CCN(CCCCCNc4cccc5c4C(=O)N(C4CCC(=O)NC4=O)C5=O)CC3)cc2)cc(C(=O)NCc2c(C)cc(C)[nH]c2=O)c1C)C1CCOCC1 (stereo not shown) [Example 2, N-((4,6-dimethyl-2-oxo-1,2-dihydropyridine-3-yl)methyl)-4′-((4-(5-((2-(2,6-dioxopiperidine-3-yl)-1,3-dioxoisoindoline-4-yl)amino)pentyl)piperazine-1-yl)methyl)-5-(ethyl(tetrahydro-2H-pyran-4-yl)amino)-4-methyl-[1,1′-biphenyl]-3-carboxamide]",–,–
D (<25%),0,–,–,"CCN(c1cc(-c2ccc(CN3CCN(CC(=O)NCCOCCCN[C@H](C(=O)N4C[C@H](O)C[C@H]4C(=O)NCc4ccc(-c5scnc5C)cc4)C(C)(C)C)CC3)cc2)cc(C(=O)NCc2c(C)cc(C)[nH]c2=O)c1C)C1CCOCC1 [Example 40, (2S,4R)-1-((S)-2-((3-(2-(2-(4-((3′-(((4,6-dimethyl-2-oxo-1,2-dihydropyridine-3-yl)methyl)carbamoyl)-5′-(ethyl(tetrahydro-2H-pyran-4-yl)amino)-4′-methyl-[1,1′-biphenyl]-4-yl)methyl)piperazine-1-yl)acetamido)ethoxy)propyl)amino)-3,3-dimethylbutanoyl)-4-hydroxy-N-(4-(4-methylthiazole-5-yl)benzyl)pyrrolidine-2-carboxamide]",–,–
D (<25%),16.74,–,–,"CCN(c1cc(-c2ccc(CN3CCN(CC(=O)NCCOCCCOc4cccc5c4C(=O)N(C4CCC(=O)NC4=O)C5=O)CC3)cc2)cc(C(=O)NCc2c(C)cc(C)[nH]c2=O)c1C)C1CCOCC1 (stereo not shown) [Example 18, N-((4,6-dimethyl-2-oxo-1,2-dihydropyridine-3-yl)methyl)-4′-((4-(2-((2-(3-((2-(2,6-dioxopiperidine-3-yl)-1,3-dioxoisoindoline-4-yl)oxy)propoxy)ethyl)amino)-2-oxoethyl)piperazine-1-yl)methyl)-5-(ethyl(tetrahydro-2H-pyran-4-yl)amino)-4-methyl-[1,1′-biphenyl]-3-carboxamide]",–,–
D (<25%),0,–,–,"CCN(c1cc(-c2ccc(CN3CCN(CC(=O)NCCCCCCNc4cccc5c4C(=O)N(C4CCC(=O)NC4=O)C5)CC3)cc2)cc(C(=O)NCc2c(C)cc(C)[nH]c2=O)c1C)C1CCOCC1 (stereo not shown) [Example 22, N-((4,6-dimethyl-2-oxo-1,2-dihydropyridine-3-yl)methyl)-4′-((4-(2-((6-((2-(2,6-dioxopiperidine-3-yl)-3-oxoisoindoline-4-yl)amino)hexyl)amino)-2-oxoethyl)piperazine-1-yl)methyl)-5-(ethyl(tetrahydro-2H-pyran-4-yl)amino)-4-methyl-[1,1′-biphenyl]-3-carboxamide]",–,–
D (<25%),0,–,–,"CCN(c1cc(-c2ccc(CN3CCN(CC(=O)NCCCOCCN[C@H](C(=O)N4C[C@H](O)C[C@H]4C(=O)NCc4ccc(-c5scnc5C)cc4)C(C)(C)C)CC3)cc2)cc(C(=O)NCc2c(C)cc(C)[nH]c2=O)c1C)C1CCOCC1 [Example 39, (2S,4R)-1-((S)-2-((2-(3-(2-(4-((3′-(((4,6-dimethyl-2-oxo-1,2-dihydropyridine-3-yl)methyl)carbamoyl)-5′-(ethyl(tetrahydro-2H-pyran-4-yl)amino)-4′-methyl-[1,1′-biphenyl]-4-yl)methyl)piperazine-1-yl)acetamido)propoxy)ethyl)amino)-3,3-dimethylbutanoyl)-4-hydroxy-N-(4-(4-methylthiazole-5-yl)benzyl)pyrrolidine-2-carboxamide]",–,–
D (<25%),0,–,–,"CCN(c1cc(-c2ccc(CN3CCN(CC(=O)NCCCCCOCCCOCC(=O)Nc4cccc5c4C(=O)N(C4CCC(=O)NC4=O)C5=O)CC3)cc2)cc(C(=O)NCc2c(C)cc(C)[nH]c2=O)c1C)C1CCOCC1 (stereo not shown) [Example 28, N-((4,6-dimethyl-2-oxo-1,2-dihydropyridine-3-yl)methyl)-4′-((4-(2-((5-(3-(2-((2-(2,6-dioxopiperidine-3-yl)-1,3-dioxoisoindoline-4-yl)amino)-2-oxoethoxy)propoxy)pentyl)amino)-2-oxoethyl)piperazine-1-yl)methyl)-5-(ethyl(tetrahydro-2H-pyran-4-yl)amino)-4-methyl-[1,1′-biphenyl]-3-carboxamide]",–,–
B (50-75%),67.12,–,–,"CCN(c1cc(-c2ccc(CN3CCN(CC(=O)NCCCCCOCCCOCCC(=O)N[C@H](C(=O)N4C[C@H](O)C[C@H]4C(=O)NCc4ccc(-c5scnc5C)cc4)C(C)(C)C)CC3)cc2)cc(C(=O)NCc2c(C)cc(C)[nH]c2=O)c1C)C1CCOCC1 [Example 43, (2S,4R)-1-((S)-2-(tert-butyl)-19-(4-((3′-(((4,6-dimethyl-2-oxo-1,2-dihydropyridine-3-yl)methyl)carbamoyl)-5′-(ethyl(tetrahydro-2H-pyran-4-yl)amino)-4′-methyl-[1,1′-biphenyl]-4-yl)methyl)piperazine-1-yl)-4,18-dioxo-7,11-dioxa-3,17-diazanonadecanoyl)-4-hydroxy-N-(4-(4-methylthiazole-5-yl)benzyl)pyrrolidine-2-carboxamide]",–,–
D (<25%),0,–,–,"CCN(c1cc(-c2ccc(CN3CCN(CCCCCCCOc4cccc5c4C(=O)N(C4CCC(=O)NC4=O)C5=O)CC3)cc2)cc(C(=O)NCc2c(C)cc(C)[nH]c2=O)c1C)C1CCOCC1 (stereo not shown) [Example 10, N-((4,6-dimethyl-2-oxo-1,2-dihydropyridine-3-yl)methyl)-4′-((4-(7-((2-(2,6-dioxopiperidine-3-yl)-1,3-dioxoisoindoline-4-yl)oxy)heptyl)piperazine-1-yl)methyl)-5-(ethyl(tetrahydro-2H-pyran-4-yl)amino)-4-methyl-[1,1′-biphenyl]-3-carboxamide]",–,–

# — patent US12502434B2, “Compound comprising EZH2 inhibitor and E3 ligase binder and pharmaceutical composition for preventing or treating EZH2-associated disease comprising same as active ingredient” (DAEGU-GYEONGBUK MEDICAL INNOVATION FOUNDATION, priority 2019, dated 2025)
